Experimental data from ChEMBL document CHEMBL1159257, “Methyl ethers of podophyllotoxin-related cyclolignans” (J Nat Prod, 1995).

Columns and labels:
Type in all cases: functional, cell-based
P388 = assay: Cytotoxicity against mouse P388 cells
A549 = assay: Cytotoxicity against human A549 cells
HT-29 = assay: Cytotoxicity against human HT-29 cells

SMILES	IC50 (P388) [µM]	IC50 (A549) [µM]	IC50 (HT-29) [µM]
COc1cc([C@@H]2c3cc4c(cc3[C@H](O)[C@H]3COC(=O)[C@@H]23)OCO4)cc(OC)c1OC [AXL-1717]	6	6	6
COc1cc([C@@H]2c3cc4c(cc3C=C3COC(=O)[C@H]32)OCO4)cc(OC)c1OC	0.013	0.025	0.025
COc1cc([C@@H]2c3cc4c(cc3[C@@H](O)[C@H]3COC(=O)[C@H]23)OCO4)cc(OC)c1OC [EPIPODOPHYLLOTOXIN]	0.06	0.06	0.06
COc1cc([C@@H]2c3cc4c(cc3[C@H](OC)[C@H]3COC(=O)[C@@H]23)OCO4)cc(OC)c1OC	0.12	0.12	0.23
COc1cc([C@@H]2c3cc4c(cc3[C@@H](OC)[C@@H](CO)[C@@H]2CO)OCO4)cc(OC)c1OC	11.6	11.6	11.6
COc1cc([C@@H]2c3cc4c(cc3[C@@H](OC)[C@H]3COC(=O)[C@H]23)OCO4)cc(OC)c1OC	0.06	0.06	1.2
COc1cc([C@@H]2c3cc4c(cc3[C@H](OC)[C@@H](COC(C)=O)[C@@H]2COC(C)=O)OCO4)cc(OC)c1OC	9.7	9.7	9.7
COc1cc([C@@H]2c3cc4c(cc3[C@@H](OC)[C@@H](COC(C)=O)[C@@H]2COC(C)=O)OCO4)cc(OC)c1OC	9.7	9.7	9.7
COc1cc([C@@H]2c3cc4c(cc3[C@H](OC)[C@@H](CO)[C@H]2CO)OCO4)cc(OC)c1OC	23.2	46.3	23.2
COc1cc([C@@H]2c3cc4c(cc3[C@@H](OC)[C@H]3COC(=O)[C@@H]23)OCO4)cc(OC)c1OC	0.1	0.13	0.06
COc1cc([C@@H]2c3cc4c(cc3[C@@H](Cl)[C@H]3COC(=O)[C@H]23)OCO4)cc(OC)c1OC	0.6	0.6	1.2
COc1cc([C@@H]2c3cc4c(cc3[C@H](O)[C@H]3COC(=O)[C@H]23)OCO4)cc(OC)c1OC [PODOFILOX]			0.0029
COc1cc([C@@H]2c3cc4c(cc3[C@H](OC)[C@@H](COC(C)=O)[C@H]2COC(C)=O)OCO4)cc(OC)c1OC	19.4	> 38.8	19.4
COc1cc([C@@H]2c3cc4c(cc3[C@H](OC)[C@H]3COC(=O)[C@H]23)OCO4)cc(OC)c1OC	0.06	0.06	0.06
COc1cc([C@@H]2c3cc4c(cc3[C@@H](OC)[C@@H](COC(C)=O)[C@H]2COC(C)=O)OCO4)cc(OC)c1OC	9.7	9.7	9.7
COc1cc([C@@H]2c3cc4c(cc3[C@@H](OC)[C@@H](CO)[C@H]2CO)OCO4)cc(OC)c1OC	11.6	11.6	11.6
